Experiment in all cases: relative viability (nuclei count vs DMSO), 5 days (fraction); higher = more cells survive
Compound in the assay “VE-821 + OSI-027”: CS(=O)(=O)c1ccc(-c2cnc(N)c(C(=O)Nc3ccccc3)n2)cc1 [VE-821] + COc1cccc2cc(-c3nc([C@H]4CC[C@H](C(=O)O)CC4)n4ncnc(N)c34)[nH]c12 [OSI-027] (partner 0.5 µM)
An outline of the steps:
(§1)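 After 5 days of treatment, lung cancer cells in 1536-well plates were fixed and stained in a single step (final 0.05% Triton X-100, 1% formaldehyde, 1 ug/ml Hoechst) and their nuclei counted on 4× images. Treatment had been applied by pin tool the day after seeding as one drug alone or as a fixed anchor-drug dose with five library-drug doses (not always all listed) in √10 steps. Relative viability is the nuclei count of treated wells divided by that of vehicle wells, and values are medians of duplicate plates.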

Compound in the assay “Vismodegib + Lapatinib”: CS(=O)(=O)c1ccc(C(=O)Nc2ccc(Cl)c(-c3ccccn3)c2)c(Cl)c1 [Vismodegib] + CS(=O)(=O)CCNCc1ccc(-c2ccc3ncnc(Nc4ccc(OCc5cccc(F)c5)c(Cl)c4)c3c2)o1 [Lapatinib] (partner 2 µM)
In a few lines:
as §1

Compound in the assay “Ruxolitinib + Foretinib”: N#CC[C@H](C1CCCC1)n1cc(-c2ncnc3[nH]ccc23)cn1 [Ruxolitinib] + COc1cc2c(Oc3ccc(NC(=O)C4(C(=O)Nc5ccc(F)cc5)CC4)cc3F)ccnc2cc1OCCCN1CCOCC1 [Foretinib] (partner 0.25 µM)
In a few lines:
as §1

Compound in the assay “Ruxolitinib + Luminespib”: N#CC[C@H](C1CCCC1)n1cc(-c2ncnc3[nH]ccc23)cn1 [Ruxolitinib] + CCNC(=O)c1noc(-c2cc(C(C)C)c(O)cc2O)c1-c1ccc(CN2CCOCC2)cc1 [Luminespib] (partner 0.01 µM)
An outline of the steps: as §1

For the cell line UMC-11, the relative viability with VE-821 + OSI-027 (first compound 0.08 µM) came out at 0.507; in the assay with VE-821 + OSI-027 (first compound 0.253 µM) it was 0.436; in the assay with VE-821 + OSI-027 (first compound 0.8 µM), 0.508; with VE-821 + OSI-027 (first compound 2.53 µM), 0.477; in the assay with VE-821 + OSI-027 (first compound 8 µM), 0.325; in the assay with Vismodegib + Lapatinib (first compound 0.08 µM), 0.915. In addition, the relative viability with Vismodegib + Lapatinib (first compound 0.253 µM) amounted to 0.971; in the assay with Vismodegib + Lapatinib (first compound 0.8 µM) it was 0.893; with Vismodegib + Lapatinib (first compound 2.53 µM) it was 0.974; with Vismodegib + Lapatinib (first compound 8 µM) it was 0.598; with Ruxolitinib + Foretinib (first compound 0.08 µM) it was 1.05; with Ruxolitinib + Foretinib (first compound 0.253 µM), 1.07. For the same cell line, the relative viability in the assay with Ruxolitinib + Foretinib (first compound 0.8 µM) came to 1.28; with Ruxolitinib + Foretinib (first compound 2.53 µM), 1.07; in the assay with Ruxolitinib + Foretinib (first compound 8 µM), 1.02; in the assay with Ruxolitinib + Luminespib (first compound 0.08 µM), 1.04; in the assay with Ruxolitinib + Luminespib (first compound 0.253 µM) it was 1.03; in the assay with Ruxolitinib + Luminespib (first compound 0.8 µM) it was 1.26. The relative viability with Ruxolitinib + Luminespib (first compound 2.53 µM) amounted to 1.1; in the assay with Ruxolitinib + Luminespib (first compound 8 µM), 0.978.
